From patent publication US8748428B2, “Use of a PKC inhibitor” (Novartis AG, priority 2010, dated 2014) come the findings set out here.

Holding throughout (assay type): cell-based
For experiment [1], the system named is DB cells. The experiment can be described thus: Growth inhibition, CellTiter-Glo, 5 days. As to conditions: Homo sapiens, 120 h, GC DLBCL, no NFkB mutation, 5 days treatment, read-out: growth inhibitory IC50, DB. The source says: (§1) Two pharmacological PKC inhibitors: (i) the pan-PKC inhibitor, Sotrastaurin, also known as AEB071, and (ii) the PKCa/b-selective compound, 3-[2-chloro-7-[(dimethylamino)methyl]-1-naphthalenyl]-4-[7-[2-(2-methoxyethoxy)ethoxy]-1H-indol-3-yl]-1H-pyrrole-2,5-dione (referred to herein as “Compound B”), were used to evaluate the proliferation of several diffuse large B cell lymphoma (DLBCL) lines. The IKKb-selective inhibitors N-(6-chloro-7-methoxy-9H-β-carbolin-8-yl)-2-methylnicotinamide (referred to herein as “MLN120B”) and N-[(2R,6R)-2,6-dimethyl-4-piperidinyl]-4-(7-fluoro-1H-indol-3-yl)-2-pyrimidinamine (referred to herein as “Compound A”) were used as control compounds. ABC DLBCL cell lines (OCI-LY3, OCI-LY10, HBL1, U2932, TMD8, Su-DHL2) and GC DLBCL cell lines (Su-DHL4, DB, K-422) were treated for 5 days with PKC inhibitors (A) Sotrastaurin (AEB071) or (B) Compound B; IKKb inhibitors (C) MLN120B or (D) Compound A. Cells were plated in 96-well plates (Corning, #3358) at 5000 cells/well in 100 μL and treated with DMSO or inhibitors at concentrations ranging from 160 nM to 20 μM (2-fold dilutions). Following 5 days of treatment, cells were lysed with CellTiter-Glo® Luminescent Cell Viability Assay reagent (Promega, G7573), lysates were transferred to opaque 96-well plates (Corning, #3971), and luminescence signal was read using the Envision. Percent growth was calculated relative to median DMSO signal.
(§2) While all ABC DLBCL cell lines were sensitive to IKK inhibitors, their response to PKC inhibitors varied strongly (Table 1A below). The cell lines that are insensitive to PKC inhibitors, OCI-Ly3 and Su-DHL2, have reported mutations in CARD11 and A20, respectively. […] The fact that these oncogenic lesions are thought to function downstream of PKCβ in CBM-NFkB signaling provides a molecular rationale for their insensitivity. […] See, Compagno, M., et al, “Mutations of multiple genes cause deregulation of NF-κB in diffuse large B-cell lymphoma” Nature, 459 (7247), 717-722 (2009)). […] Tables 1A and 1B below show the growth inhibitory IC50 values, which were determined by measuring ATP concentration (Cell Titer Glo), for the indicated compounds in the indicated cell lines. IC50 values were determined as the concentration of compound that leads to 50% reduction of cell growth.
Background: In ATP-based viability assays light output follows the ATP content of the culture.

Experiment [2] concerns HBL1 cells. The experiment can be described thus: Growth inhibition, CellTiter-Glo, 5 days. As to conditions: HBL1, 120 h; ABC DLBCL, CD79B mutation; 5 days treatment; read-out: growth inhibitory IC50, HBL1.
Source text: as §1, §2

Experiment [3] deals with K422 cells. Briefly: Growth inhibition, CellTiter-Glo, 5 days. As to conditions: 120 h; GC DLBCL, no NFkB mutation; 5 days treatment; read-out: growth inhibitory IC50, K422.
Source text: as §1, §2

For experiment [4], the system named is OCI-Ly10 cells. Briefly: Growth inhibition, CellTiter-Glo, 5 days. Conditions: Homo sapiens, OCI-Ly10, 120 h; ABC DLBCL, CD79A mutation; 5 days treatment; read-out: growth inhibitory IC50, OCI-Ly10.
Source text: as §1, §2

Experiment [5] concerns OCI-Ly3 cells. The experiment can be described thus: Growth inhibition, CellTiter-Glo, 5 days. Conditions: Homo sapiens, OCI-Ly3, 120 h; ABC DLBCL, CARD11 mutation; 5 days treatment; read-out: growth inhibitory IC50, OCI-Ly3.
Source text: as §1, §2

Experiment [6] relates to Su-DHL2 cells. The experiment can be described thus: Growth inhibition, CellTiter-Glo, 5 days. As to conditions: Homo sapiens, SU-DHL-2, 120 h; ABC DLBCL, A20 mutation; 5 days treatment; read-out: growth inhibitory IC50, Su-DHL2.
Source text: as §1, §2

The subject of experiment [7] is Su-DHL4 cells. Briefly: Growth inhibition, CellTiter-Glo, 5 days. Conditions: Homo sapiens, SU-DHL-4, 120 h; GC DLBCL, no NFkB mutation; 5 days treatment; read-out: growth inhibitory IC50, Su-DHL4.
Source text: as §1, §2

The test system of experiment [8] is TMD8 cells. The experiment can be described thus: Growth inhibition, CellTiter-Glo, 5 days. Conditions: Homo sapiens, TMD8, 120 h; ABC DLBCL, CD79B mutation; 5 days treatment; read-out: growth inhibitory IC50, TMD8.
Source text: as §1, §2

For experiment [9], the system named is U2392 cells. Briefly: Growth inhibition, CellTiter-Glo, 5 days. Conditions: 120 h; ABC DLBCL, TAK1 mutation; 5 days treatment; read-out: growth inhibitory IC50, U2392.
Source text: as §1, §2

Experiment [10] relates to IL-6 mRNA in TMD8 cells. Briefly: IL-6 mRNA expression (Taqman). Conditions: TMD8, 24 hours, 10 nM to 10 uM. The text has this:
Constitutive activation of the NFkB pathway is a molecular hallmark of ABC DLBCL cells and is required for their proliferation and survival. See Davis, R. E., et al., J Exp Med, 194(12), 1861-1874 (2001). To confirm that the growth inhibitory effect in response to PKC inhibition is mediated through modulation of NFkB pathway signaling, the expression of NFkB pathway genes were monitored in response to AEB071 treatment. The NFkB-pathway-induced cytokine IL-6 was used as a marker to study NFkB pathway modulation by PKC inhibitors. See Lam, L. T., et al., Blood 111(7):3701-13 (2008). To measure IL-6 mRNA levels, cells were plated in […] plates in 2 ml media at 2M/ml, then treated with DMSO or inhibitors from 10 nM to 10 uM (4-fold dilutions) for 24 hours. Total RNA was harvested using the RNeasy kit (Qiagen, #74104) and cDNA was made from 1 μg total RNA using the High Capacity cDNA kit (ABI, #4368814), according to manufacturer's protocols. Taqman probes (ABI: IL-6, Hs00174131_m1) were used with Gene Expression Master Mix (ABI, 4369510) to determine the amount of mRNA expression for IL-6 relative to an endogenous control gene (ABI: TBP, 4326322E) and the DMSO control using the delta-delta Ct method.

Experiment [11] deals with IL-6 secretion in HBL1 cells. The experiment can be described thus: IL-6 secretion (Quantikine ELISA). Conditions: HBL1, ELISA of supernatant, 48 hours. How it is done:
(§3) The fact that IL-6 is secreted from cells allowed for monitoring of IL-6 levels in cell supernatants. IL-6 secretion was determined by Quantikine ELISA using supernatant from treated cells. Cells were washed and plated at 100,000 cells/well in 100 ul in fresh media in round-bottom 96-well plates (Corning, #3358). The cells were then treated with DMSO or inhibitors at concentrations ranging from 80 nM to 10 uM (2-fold dilutions), and incubated at 37° C. for 48 hours. Then the conditioned media was transferred to v-bottom 96-well plates (Nunc, #12565436). The level of IL-6 secretion was determined by the Quantkine colorimetric ELISA kit from (R & D Systems, #D6050), according to the manufacturer's instructions. For the IL-6 ELISA, the conditioned media was diluted 1:2 with fresh media (except ion: the HBL1 conditioned media was not diluted, it was used 1:1). In FIG. 2, IL-6 secretion for each dose is expressed as a percentage of IL-6 secretion from cells treated with DMSO.
A general note: ELISA stands for enzyme-linked immunosorbent assay.

In experiment [12] the test system is IL-6 secretion in TMD8 cells. Briefly: IL-6 secretion (Quantikine ELISA). Conditions: Homo sapiens; TMD8, ELISA of supernatant, 48 hours. How it is done:
as §3

In general, IC50 refers to the concentration that gives 50% inhibition. Take `COc1c(Cl)cc2c([nH]c3cnccc32)c1NC(=O)c1cccnc1C` [MLN120B, N-(6-chloro-7-methoxy-9H-β-carbolin-8-yl)-2-methylnicotinamide]: the IC50 in experiment [1] was over 40 µM; in experiment [2], 10 µM; in [3] it was over 40 µM; in experiment [4] it was 10 µM; in experiment [5], 12 µM; in experiment [6], 10 µM. The half-maximal inhibitory concentration (IC50) in experiment [7] was over 20 µM; in experiment [8], 10 µM; in [9], 10 µM.
As for `CN(C)C[C@@H]1CCn2cc(c3ccccc32)C2=C(C(=O)NC2=O)c2cn(c3ccccc23)CCO1` [LY333531, (9S)-9-[(dimethylamino)methyl]-6,7,10,11-tetrahydro-9H,18H-5, 21:12,17-dimethenodibenzo[e,k]pyrrolo[3,4-h][1,4,13]oxadiazacyclohexadecine-18,20(19H)-dione], in [10], the “IL-6 mRNA expression” value was “reduced IL-6 mRNA expression in a dose-dependent manner”.
In the case of `C[C@@H]1CC(Nc2nccc(-c3c[nH]c4c(F)cccc34)n2)C[C@@H](C)N1` (stereo partly drawn) [Compound A, N-[(2R,6R)-2,6-dimethyl-4-piperidinyl]-4-(7-fluoro-1H-indol-3-yl)-2-pyrimidinamine], the half-inhibitory concentration (IC50) is over 20 µM in [1]; 2.5 µM in [2]; 10 µM in experiment [3]; 0.3 µM in experiment [4]; 0.4 µM in experiment [5]; 15 µM in [6]. For the same compound, the 50% inhibitory concentration (IC50) in experiment [7] was 10 µM; in experiment [8], 0.2 µM; in experiment [9], 2.5 µM.
On to `COCCOCCOc1cccc2c(C3=C(c4c(Cl)ccc5ccc(CN(C)C)cc45)C(=O)NC3=O)c[nH]c12` [Compound B, 3-[2-chloro-7-[(dimethylamino)methyl]-1-naphthalenyl]-4-[7-[2-(2-methoxyethoxy)ethoxy]-1H-indol-3-yl]-1H-Pyrrole-2,5-dione], for which the half-inhibitory concentration (IC50) in experiment [1] was over 20 µM; in experiment [2], 0.5 µM; in experiment [3] it was 11 µM; in [4] it was 0.5 µM; in experiment [5], over 20 µM; in [6] it was 15 µM. The IC50 is 7.5 µM in experiment [7]; 0.2 µM in experiment [8]; 10 µM in [9]; under 0.2 µM in experiment [11]; under 0.2 µM in experiment [12]. Besides, the “IL-6 mRNA expression” value in experiment [10] is listed as “reduced IL-6 mRNA expression in a dose-dependent manner”.
Take `O=C1NC(=O)C(c2c[nH]c3ccccc23)=C1c1nc(N2CCNCC2)nc2ccccc12` [Compound D, 3-(1H-Indol-3-yl)-4-[2-(piperazin-1-yl)quinazolin-4-yl]pyrrole-2,5-dione]: the IC50 in [1] is over 20 µM; in [2], 0.2 µM; in experiment [5], 15 µM; in [6] it was over 20 µM; in [7], 15 µM; in experiment [8] it was 0.2 µM. For the same compound, the half-inhibitory concentration (IC50) in experiment [9] amounted to 3 µM.
